The values that follow come from patent US9732075B2, “Benzimidazole-proline derivatives” (IDORSIA PHARMACEUTICALS LTD, priority 2012, dated 2017).

A value given as a limit tells only on which side of the number the result lay.

One assay has as its target human orexin-2 receptor (Homo sapiens (Human), UniProt O43614). Put plainly: In vitro assay: intracellular calcium measurements (FLIPR), antagonistic activity. To be noted: CHO cells expressing human orexin-2 receptor, orexin-A agonist, geometric mean, read-out: IC50 Ox2. Type of assay: cell-based. A digest of the protocol: (§1)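 Read-out: FLIPR fluo-4 calcium peak height in CHO cells bearing human orexin-1 or orexin-2 receptor, relative to orexin-A (approx. EC70) with vehicle. Antagonist preincubation 120 min; agonist orexin-A at 3 nM final. IC50 possibly normalized to an on-plate reference compound.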
On the technique in general: Calcium flux is commonly read through the fluorescence of an indicator in the cells.

The target of a further assay is human orexin-1 receptor (Homo sapiens (Human), UniProt O43613). Described as above. To be noted: CHO cells expressing human orexin-1 receptor, orexin-A agonist, geometric mean, read-out: IC50 Ox1. Type of assay: cell-based. In outline:
as §1

Chain of human orexin-1 receptor (O43613 whole entry): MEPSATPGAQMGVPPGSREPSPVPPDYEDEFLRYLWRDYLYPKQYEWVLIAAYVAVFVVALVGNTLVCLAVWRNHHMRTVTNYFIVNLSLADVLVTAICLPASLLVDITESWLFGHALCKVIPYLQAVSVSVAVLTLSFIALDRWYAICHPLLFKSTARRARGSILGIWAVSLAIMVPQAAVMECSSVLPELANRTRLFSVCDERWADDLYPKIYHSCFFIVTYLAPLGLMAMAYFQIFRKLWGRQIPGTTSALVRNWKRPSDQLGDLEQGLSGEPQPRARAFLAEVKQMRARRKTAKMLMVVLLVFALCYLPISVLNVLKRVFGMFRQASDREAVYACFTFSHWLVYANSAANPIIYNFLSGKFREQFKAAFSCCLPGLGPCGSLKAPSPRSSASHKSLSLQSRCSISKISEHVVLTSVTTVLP
Chain of human orexin-2 receptor (O43614 whole entry): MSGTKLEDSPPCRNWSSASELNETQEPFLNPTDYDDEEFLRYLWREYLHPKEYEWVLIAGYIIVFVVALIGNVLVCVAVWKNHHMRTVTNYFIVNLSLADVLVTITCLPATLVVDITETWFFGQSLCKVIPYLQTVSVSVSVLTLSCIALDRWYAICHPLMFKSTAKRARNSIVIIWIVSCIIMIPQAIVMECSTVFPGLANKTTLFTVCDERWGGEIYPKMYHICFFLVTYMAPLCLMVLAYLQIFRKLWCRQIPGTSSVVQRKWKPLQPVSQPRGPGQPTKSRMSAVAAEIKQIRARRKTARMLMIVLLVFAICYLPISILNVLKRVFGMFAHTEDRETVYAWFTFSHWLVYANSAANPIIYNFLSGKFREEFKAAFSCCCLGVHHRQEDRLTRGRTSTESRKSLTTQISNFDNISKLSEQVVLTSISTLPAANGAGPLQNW

For the compound `Cc1ccc(-n2nccn2)c(C(=O)N2CCC[C@@]2(C)c2nc3cc(C(F)(F)F)ccc3[nH]2)c1F` [Ex. 5.169], the 50% inhibitory concentration (IC50) was found to be 197 nM at human orexin-2 receptor and 63 nM at human orexin-1 receptor.
Consider `Cc1cc(C(=O)N2CCC[C@@]2(C)c2nc3cc(C(F)(F)F)ccc3[nH]2)c(-n2nccn2)cc1C` [Ex. 5.170], for which the figures for the half-maximal inhibitory concentration (IC50) at human orexin-2 receptor and on human orexin-1 receptor were 13 nM and 2 nM, respectively.
On the same counts, the results for `Cc1ccc(C(=O)N2CCC[C@@]2(C)c2nc3cc(C(F)(F)F)ccc3[nH]2)c(-n2nccn2)c1` [Ex. 5.171] are 58 nM and 12 nM.
For `C[C@@]1(c2nc3cc(C(F)(F)F)ccc3[nH]2)CCCN1C(=O)c1cc(C(F)(F)F)ccc1-n1nccn1` [Ex. 5.172] the same measures were 704 nM and 92 nM.
For the compound `C[C@@]1(c2nc3cc(C(F)(F)F)ccc3[nH]2)CCCN1C(=O)c1cc(OC(F)(F)F)ccc1-n1nccn1` [Ex. 5.173], the values for the IC50 at human orexin-2 receptor and on human orexin-1 receptor were 1140 nM and 290 nM, respectively.
As to `COc1cc(C(=O)N2CCC[C@@]2(C)c2nc3cc(C(F)(F)F)ccc3[nH]2)c(-n2nccn2)cc1OC` [Ex. 5.174], the values for the IC50 on human orexin-2 receptor and at human orexin-1 receptor were 133 nM and 59 nM, respectively.
For `Cc1ccc(-n2cccn2)c(C(=O)N2CCC[C@@]2(C)c2nc3cc(C(F)(F)F)ccc3[nH]2)c1` [Ex. 5.175] the same measures were 355 nM and 24 nM.
On the same counts, the results for `C[C@@]1(c2nc3cc(C(F)(F)F)ccc3[nH]2)CCCN1C(=O)c1ccccc1-n1cccn1` [Ex. 5.176] are 1070 nM and 389 nM.
As to `Cc1ccc(-n2cccn2)c(C(=O)N2CCC[C@@]2(C)c2nc3cc(C(F)(F)F)ccc3[nH]2)n1` [Ex. 5.177], the IC50 at human orexin-2 receptor stood at 860 nM; on human orexin-1 receptor, 76 nM.
On the same counts, the results for `Cc1ccc(-n2nccn2)c(C(=O)N2CCC[C@@]2(C)c2nc3cc(C(F)(F)F)ccc3[nH]2)n1` [Ex. 5.178] are 280 nM and 20 nM.
For `Cc1cccc(C(=O)N2CCC[C@@]2(C)c2nc3cc(C(F)(F)F)ccc3[nH]2)c1-n1nccn1` [Ex. 5.179] the same measures were 1120 nM and 368 nM.
As for `C[C@@]1(c2nc3cc(C(F)(F)F)ccc3[nH]2)CCCN1C(=O)c1cc(C#N)ccc1-n1nccn1` [Ex. 5.180], the values for the half-inhibitory concentration (IC50) at human orexin-2 receptor and at human orexin-1 receptor were 261 nM and 42 nM, respectively.
On the same counts, the results for `Cc1ccc(-c2ccc(F)cc2C)c(C(=O)N2CCC[C@@]2(C)c2nc3cc(C(F)(F)F)ccc3[nH]2)c1` [Ex. 5.181] are 556 nM and 385 nM.
For `Cc1ccc(-c2cccc(F)c2)c(C(=O)N2CCC[C@@]2(C)c2nc3cc(C(F)(F)F)ccc3[nH]2)c1` [Ex. 5.182] the same measures were 55 nM and 10 nM.
On the same counts, the results for `Cc1ccc(-c2ccc(C(F)(F)F)cc2)c(C(=O)N2CCC[C@@]2(C)c2nc3cc(C(F)(F)F)ccc3[nH]2)c1` [Ex. 5.183] are 1160 nM and 339 nM.
On to `Cc1ccc(-c2cccc(OC(F)(F)F)c2)c(C(=O)N2CCC[C@@]2(C)c2nc3cc(C(F)(F)F)ccc3[nH]2)c1` [Ex. 5.184], for which the 50% inhibitory concentration (IC50) on human orexin-2 receptor stood at 413 nM; at human orexin-1 receptor it was 300 nM.
On to `COc1ccccc1-c1ccc(C)cc1C(=O)N1CCC[C@@]1(C)c1nc2cc(C(F)(F)F)ccc2[nH]1` [Ex. 5.185], for which the figures for the 50% inhibitory concentration (IC50) at human orexin-2 receptor and on human orexin-1 receptor were 283 nM and 91 nM, respectively.
On the same counts, the results for `Cc1ccc(-c2ccccc2C)c(C(=O)N2CCC[C@@]2(C)c2nc3cc(C(F)(F)F)ccc3[nH]2)c1` [Ex. 5.186] are 294 nM and 120 nM.
On the same counts, the results for `Cc1ccc(-c2ccc(OC(F)(F)F)cc2)c(C(=O)N2CCC[C@@]2(C)c2nc3cc(C(F)(F)F)ccc3[nH]2)c1` [Ex. 5.187] are more than 2590 nM and 310 nM.
With `COc1cccc(-c2ccc(C)cc2C(=O)N2CCC[C@@]2(C)c2nc3cc(C(F)(F)F)ccc3[nH]2)c1` [Ex. 5.188], the IC50 at human orexin-2 receptor came to 119 nM; at human orexin-1 receptor, 23 nM.
On the same counts, the results for `Cc1cccc(-c2ccc(C)cc2C(=O)N2CCC[C@@]2(C)c2nc3cc(C(F)(F)F)ccc3[nH]2)c1` [Ex. 5.189] are 62 nM and 16 nM.
For `Cc1ccc(-c2cccc(C#N)c2)c(C(=O)N2CCC[C@@]2(C)c2nc3cc(C(F)(F)F)ccc3[nH]2)c1` [Ex. 5.190] the same measures were 119 nM and 58 nM.
On the same counts, the results for `COc1ccc(-c2ccc(C)cc2C(=O)N2CCC[C@@]2(C)c2nc3cc(C(F)(F)F)ccc3[nH]2)cc1` [Ex. 5.191] are 69 nM and 18 nM.
Consider `Cc1ccc(-c2ccc(C)cc2C(=O)N2CCC[C@@]2(C)c2nc3cc(C(F)(F)F)ccc3[nH]2)cc1` [Ex. 5.192], for which the figures for the 50% inhibitory concentration (IC50) at human orexin-2 receptor and on human orexin-1 receptor were 88 nM and 23 nM, respectively.
For `Cc1ccc(-c2ccc(C#N)cc2)c(C(=O)N2CCC[C@@]2(C)c2nc3cc(C(F)(F)F)ccc3[nH]2)c1` [Ex. 5.193] the same measures were 203 nM and 24 nM.
As for `Cc1ccc(-c2ccccc2F)c(C(=O)N2CCC[C@@]2(C)c2nc3cc(C(F)(F)F)ccc3[nH]2)c1` [Ex. 5.194], the values for the IC50 at human orexin-2 receptor and at human orexin-1 receptor were 98 nM and 13 nM, respectively.
On the same counts, the results for `Cc1ccc(-c2cccc(C(F)(F)F)c2)c(C(=O)N2CCC[C@@]2(C)c2nc3cc(C(F)(F)F)ccc3[nH]2)c1` [Ex. 5.195] are 102 nM and 73 nM.
For `Cc1ccc(-c2cccc(C)c2C)c(C(=O)N2CCC[C@@]2(C)c2nc3cc(C(F)(F)F)ccc3[nH]2)c1` [Ex. 5.196] the same measures were 199 nM and 91 nM.
Turning to `Cc1ccc(-c2ccc(F)cc2)c(C(=O)N2CCC[C@@]2(C)c2nc3cc(C(F)(F)F)ccc3[nH]2)c1` [Ex. 5.197], the values for the IC50 on human orexin-2 receptor and on human orexin-1 receptor were 166 nM and 18 nM, respectively.
On the same counts, the results for `Cc1ccc(-c2ccc3c(c2)OCO3)c(C(=O)N2CCC[C@@]2(C)c2nc3cc(C(F)(F)F)ccc3[nH]2)c1` [Ex. 5.198] are 34 nM and 18 nM.
On the same counts, the results for `Cc1cc(C(=O)N2CCC[C@@]2(C)c2nc3c(F)c(F)ccc3[nH]2)c(-n2nccn2)cc1C` [Ex. 5.199] are 83 nM and 12 nM.
For `C[C@@]1(c2nc3c(F)c(F)ccc3[nH]2)CCCN1C(=O)c1cc(Cl)ccc1-n1nccn1` [Ex. 5.200] the same measures were 517 nM and 115 nM.
For `Cc1ccc(-n2cccn2)c(C(=O)N2CCC[C@@]2(C)c2nc3c(F)c(F)ccc3[nH]2)c1` [Ex. 5.201], the IC50 stood at 861 nM at human orexin-2 receptor and 265 nM on human orexin-1 receptor.
On the same counts, the results for `Cc1ccc(C(=O)N2CCC[C@@]2(C)c2nc3c(F)c(F)ccc3[nH]2)c(-n2nccn2)c1` [Ex. 5.202] are 924 nM and 227 nM.
On the same counts, the results for `COc1ccc(-n2nccn2)c(C(=O)N2CCC[C@@]2(C)c2nc3c(F)c(F)ccc3[nH]2)c1F` [Ex. 5.203] are 1380 nM and 195 nM.
For `C[C@@]1(c2nc3c(F)c(F)ccc3[nH]2)CCCN1C(=O)c1cc(F)ccc1-n1nccn1` [Ex. 5.204] the same measures were 900 nM and 360 nM.
As for `Cc1ccc(-n2nccn2)c(C(=O)N2CCC[C@@]2(C)c2nc3c(F)c(F)ccc3[nH]2)n1` [Ex. 5.205], the concentration for half-maximal inhibition (IC50) at human orexin-2 receptor was found to be 852 nM; at human orexin-1 receptor, 149 nM.
On the same counts, the results for `Cc1nc(C(=O)N2CCC[C@@]2(C)c2nc3c(F)c(F)ccc3[nH]2)c(-c2ccccc2)s1` [Ex. 5.206] are 117 nM and 19 nM.
On the same counts, the results for `Cc1nc(C(=O)N2CCC[C@@]2(C)c2nc3c(F)c(F)ccc3[nH]2)c(-c2cccc(Cl)c2)s1` [Ex. 5.207] are 78 nM and 15 nM.
In the case of `Cc1nc(C(=O)N2CCC[C@@]2(C)c2nc3ccc(F)c(F)c3[nH]2)c(-c2ccc(F)cc2)s1` [Ex. 5.208], the IC50 at human orexin-2 receptor is 284 nM; on human orexin-1 receptor it was 53 nM.
For `Cc1ccc(-c2sc(C)nc2C(=O)N2CCC[C@@]2(C)c2nc3c(F)c(F)ccc3[nH]2)cc1` [Ex. 5.209] the same measures were 101 nM and 17 nM.
For `Cc1cccc(-c2sc(C)nc2C(=O)N2CCC[C@@]2(C)c2nc3ccc(F)c(F)c3[nH]2)c1` [Ex. 5.210] the same measures were 27 nM and 3 nM.
On the same counts, the results for `Cc1nc(C(=O)N2CCC[C@@]2(C)c2nc3c(F)c(F)ccc3[nH]2)c(-c2ccc(Cl)cc2)s1` [Ex. 5.211] are 159 nM and 27 nM.
As to `Cc1nc(C(=O)N2CCC[C@@]2(C)c2nc3c(F)c(F)ccc3[nH]2)c(-c2cccc(F)c2)s1` [Ex. 5.212], the IC50 turned out to be 239 nM at human orexin-2 receptor and 26 nM on human orexin-1 receptor.
On the same counts, the results for `COc1cccc(-c2sc(C)nc2C(=O)N2CCC[C@@]2(C)c2nc3c(F)c(F)ccc3[nH]2)c1` [Ex. 5.213] are 51 nM and 16 nM.
For `Cc1ccc(-c2ncccn2)c(C(=O)N2CCC[C@@]2(C)c2nc3c(C)c(Cl)ccc3[nH]2)c1` [Ex. 5.214] the same measures were 4 nM and 2 nM.
For `Cc1ccc(-c2ccccn2)c(C(=O)N2CCC[C@@]2(C)c2nc3c(C)c(Cl)ccc3[nH]2)c1` [Ex. 5.215] the same measures were 11 nM and 4 nM.
`Cc1ccc(-c2cccnc2)c(C(=O)N2CCC[C@@]2(C)c2nc3ccc(Cl)c(C)c3[nH]2)c1` [Ex. 5.216]: the IC50 at human orexin-2 receptor was 45 nM; at human orexin-1 receptor, 15 nM.
For `Cc1ccc(-c2cccnc2)c(C(=O)N2CCC[C@@]2(C)c2nc3ccc(Cl)c(C)c3[nH]2)c1` [Ex. 5.217] the same measures were 274 nM and 98 nM.
On to `Cc1c(Cl)ccc2[nH]c([C@]3(C)CCCN3C(=O)c3cc(F)ccc3-c3ccccc3)nc12` [Ex. 5.218], for which the IC50 at human orexin-2 receptor was determined as 36 nM; on human orexin-1 receptor, 13 nM.

As a reminder, the IC50 is the concentration that inhibits the measured activity by half.
